Source: BindingDB's records for doi:10.1021/jm00113a025 (Merck Sharp and Dohme Research Laboratories, 1991)

Biological target: T1, Dimer of Gag-Pol polyprotein [489-587] (Human immunodeficiency virus 1, UniProt P04585)
T1 construct: 489-587
Test: Protease Inhibition Assay
Conditions: pH 5.5; 30 °C
Protocol: Sensitivity of HIV-1 protease activity to protease inhibitors was determined by a peptide substrate cleavage assay. Protease products were analyzed on a reverse-phase high-pressure liquid chromatograph.

Question: For `CC(C)C[C@H](NC(=O)[C@H](Cc1ccccc1)C[C@H](O)[C@H](Cc1ccccc1)NC(=O)OC(C)(C)C)C(=O)N[C@@H](Cc1ccccc1)C(N)=O` [Hydroxyethylene dipeptide isostere], which IC50 is on record?
Answer: 0.6 nM

Question: `CCC(C)[C@H](NC(=O)[C@H](Cc1ccccc1)C[C@H](O)[C@H](Cc1ccccc1)NC(=O)OC(C)(C)C)C(=O)N[C@@H](Cc1ccccc1)C(N)=O` (stereo partly drawn) [tert-butyl N-[(2S,3S,5R)-5-benzyl-5-{[(1S,2S)-1-{[(1S)-1-carbamoyl-2-phenylethyl]carbamoyl}-2-methylbutyl]carbamoyl}-3-hydroxy-1-phenylpentan-2-yl]carbamate] was tested. Which IC50 did it give?
Answer: 0.25 nM
